US4210638A, “Antiviral composition and method of treating virus diseases” (PCR, Inc., priority 1978, dated 1980)

Key:
[1] = test system: man; conditions: extremely high concentrations; cited from earlier work
[2] = test system: uninfected cells; conditions: cited from earlier work; for toxicity in culture: cell culture; for toxicity towards uninfected cells compared with deoxyuridine compounds: Greer et al. 1975
[3] = test system: Herpes simplex; conditions: cited from earlier work
[4] = test system: uridine and thymidine phosphorylase; conditions: cited from earlier work
[5] = test system: vaccinia; conditions: Shugar 1974; cited from earlier work
[6] = test system: vesicular stomatitis; conditions: Shugar 1974; cited from earlier work
[7] = test system: HSV infections of the eye; conditions: cited from earlier work; for antiviral activity against HSV infections of the eye: Kaufman 1962 / Heidelberger
[8] = test system: human encephalitis; conditions: in vivo; cited from earlier work
[9] = test system: recurrent genital Herpes; conditions: in vivo; cited from earlier work
[10] = target: T1, HSV-2 induced pyrimidine deoxyribonucleoside kinase (Human herpesvirus 2 strain HG52, UniProt P89446); assay: Phosphorylation by HSV-2 induced pyrimidine deoxyribonucleoside kinase; assay type: biochemical; conditions: for nmoles phosphorylated/60min.: solutions a, c, d adjusted to the same O.D.
T1 construct: preparation not described in the excerpts
From the text: The following spots were eluted into H2 O and scanned from 225 to 350 nm: (a) standard, (b) F3 methyl dC standard, […] spot after cytidine deaminase treatment of F3 dT and […] spot after cytidine deaminase treatment of F3 methyl dC. The u.v. absorption profile of F3 dT derived from deamination of F3 methyl dC is identical to that obtained from authentic F3 dT.
Solutions a, c, and d, above, were adjusted to the same O. D. and used as substrates for HSV-2 induced pyrimidine deoxyribonucleoside kinase. Results:
Stock solutions of F3 dT and F3 methyl dC were made up and adjusted to the same concentration as the F3 dT and F3 methyl dC purified chromatographically (solutions a and b, respectively). Usually, F3 methyl dC is phosphorylated 1/6 of the extent that F3 dT is phosphorylated. […] This experiment was performed twice. Results:
Values for chromatographically purified samples are probably lower due to impurities arising from non-acid washed paper.

[11] = test system: cytidine deaminase; assay: Incubation with crude cytidine deaminase extract of HEP-2 cells (deamination); assay type: in vitro ADME, human; conditions: crude HEP-2 cytidine deaminase extract; Whatman 3MM chromatography
[12] = Incubation with HNO2 (pH 4.5) at room temperature; assay type: physicochemical
Description: (§1) The results of incubation with HNO2 (pH 4.5) at room temperature were identical to those obtained above.

[13] = Incubation with acetate buffer (pH 4.5); assay type: physicochemical; conditions: 9 hours
Description: as §1

[14] = in vivo; cited from earlier work
[15] = test system: HEp-2 cells; assay: Cytotoxicity vs HEp-2 cells (colony formation, % survival)
[16] = test system: HSV-2; assay: Antiviral activity vs HSV-2 in HEp-2 cells (plaque assay in BHK cells); assay type: cell-based; conditions: 100 or 500 μg/ml
Description: The culture medium containing the nucleoside analogs at varying concentrations are added to the infected cultures. In the case of HEp-2 cells which contain high deaminase levels, H4 U is incorporated into the medium. At 48 hours, virus is harvested from the cultures by freezing and thawing. The virus produced from each culture is titred by plaque assay in BHK cells. By using this protocol the antiviral effectiveness of F3 methyl dC can be compared directly with the effectiveness of other antiviral agents. Furthermore, by including H4 U in the medium, the effectiveness of F3 methyl dC can be determined without deamination at the nucleoside level.

[17] = test system: animal systems; conditions: usually must be administered very soon after infection; cited from earlier work

T1 sequence (P89446 whole entry): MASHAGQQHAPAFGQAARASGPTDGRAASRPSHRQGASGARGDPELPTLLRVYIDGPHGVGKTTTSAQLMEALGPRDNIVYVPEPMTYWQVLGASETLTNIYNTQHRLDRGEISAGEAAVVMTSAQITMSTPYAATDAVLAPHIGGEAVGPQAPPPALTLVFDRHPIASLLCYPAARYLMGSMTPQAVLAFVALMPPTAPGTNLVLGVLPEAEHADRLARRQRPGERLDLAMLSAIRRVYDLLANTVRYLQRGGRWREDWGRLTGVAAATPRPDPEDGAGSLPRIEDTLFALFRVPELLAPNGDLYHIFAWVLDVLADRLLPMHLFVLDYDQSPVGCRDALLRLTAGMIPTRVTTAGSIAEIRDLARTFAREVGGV

SMILES: O=C1NC(O)CCN1[C@H]1C[C@H](O)[C@@H](CO)O1 (some centres unmarked) [2'-deoxytetrahydrouridine]
- toxicity in man [1]: not toxic in man at extremely high concentrations

SMILES: C=CCc1cn([C@H]2C[C@H](O)[C@@H](CO)O2)c(=O)[nH]c1=O [5-allyl-2'-deoxyuridine]
- toxicity in culture [2]: non-toxic in culture
- antiviral activity against Herpes simplex in cell culture [3]: do exhibit antiviral activity
- substrate for catabolic enzymes uridine and thymidine phosphorylase [4]: substrates for the catabolic enzymes

SMILES: CCc1cn([C@H]2C[C@H](O)[C@@H](CO)O2)c(=O)nc1N [5-ethyl-2'-deoxycytidine]
- antiviral activity against HSV infected cells ([3]; Shugar 1974): only a low antiviral activity
- activity against vaccinia [5]: no activity
- activity against vesicular stomatitis [6]: no activity

SMILES: CCc1cn([C@H]2C[C@H](O)[C@@H](CO)O2)c(=O)[nH]c1=O [5-ethyl-2'-deoxyuridine]
- toxicity in culture [2]: non-toxic in culture
- antiviral activity against Herpes simplex in cell culture [3]: do exhibit antiviral activity
- substrate for catabolic enzymes uridine and thymidine phosphorylase [4]: substrates for the catabolic enzymes

SMILES: O=c1[nH]c(=O)n([C@H]2C[C@H](O)[C@@H](CO)O2)cc1F [5-fluorodeoxyuridine]
- antiviral activity against HSV infections of the eye [7]: very little antiviral activity

SMILES: CNc1cn([C@H]2C[C@H](O)[C@@H](CO)O2)c(=O)[nH]c1=O [5-methyl amino-2'-deoxyuridine]
- toxicity in culture [2]: non-toxic in culture
- substrate for catabolic enzymes uridine and thymidine phosphorylase [4]: substrates for the catabolic enzymes

SMILES: Cc1cn([C@H]2C[C@H](O)[C@@H](CO)O2)c(=O)nc1N [5-methyl-2'-deoxycytidine]
- antiviral activity against HSV infected cells compared with 5-methyl-2'-deoxyuridine ([3]; Lin and Prusoff 1977): less effective

SMILES: O=c1[nH]c(=O)n([C@H]2C[C@H](O)[C@@H](CO)O2)cc1-c1ccccc1 [5-phenyl-2'-deoxyuridine]
- toxicity in culture [2]: non-toxic in culture
- antiviral activity against Herpes simplex in cell culture [3]: do exhibit antiviral activity
- substrate for catabolic enzymes uridine and thymidine phosphorylase [4]: substrates for the catabolic enzymes

SMILES: CCCc1cn([C@H]2C[C@H](O)[C@@H](CO)O2)c(=O)[nH]c1=O [5-propyl-2'-deoxyuridine]
- toxicity in culture [2]: non-toxic in culture
- antiviral activity against Herpes simplex in cell culture [3]: do exhibit antiviral activity
- substrate for catabolic enzymes uridine and thymidine phosphorylase [4]: substrates for the catabolic enzymes

SMILES: N#CSc1cn([C@H]2C[C@H](O)[C@@H](CO)O2)c(=O)[nH]c1=O [5-thiocyanato-2'-deoxyuridine]
- toxicity in culture [2]: non-toxic in culture
- antiviral activity against Herpes simplex in cell culture [3]: do exhibit antiviral activity
- substrate for catabolic enzymes uridine and thymidine phosphorylase [4]: substrates for the catabolic enzymes

SMILES: Nc1ncnc2c1ncn2[C@@H]1O[C@H](CO)[C@@H](O)[C@@H]1O [Adenine arabinoside]
- incidence of death due to human encephalitis [8]: decrease the incidence of death
- effect against recurrent genital Herpes [9]: neither effective against recurrent genital Herpes

SMILES: Nc1nc(=O)n([C@H]2C[C@H](O)[C@@H](CO)O2)cc1Br [BrdC, 5-bromo-2'-deoxycytidine]
- toxicity towards uninfected cells compared with deoxyuridine compounds [2]: substantially less toxic towards uninfected cells

SMILES: O=c1[nH]c(=O)n([C@H]2C[C@H](O)[C@@H](CO)O2)cc1C(F)(F)F [F3 dT, 5-trifluoromethyl-2'-deoxyuridine]
- nmoles phosphorylated/4 hrs ([10]; chromatographically purified, value in parentheses (experiment performed twice)): 0.19 nmoles/4 hrs
- nmoles phosphorylated/4 hrs ([10]; chromatographically purified, value outside parentheses): 0.16 nmoles/4 hrs
- extent of phosphorylation compared with F3 dT ([10]; product of cytidine deaminase treatment of F3 methyl dC (d)): to the same extent as F3 dT
- nmoles phosphorylated/60min. ([10]; listed as a): 0.07 nmoles/60min
- nmoles phosphorylated/60min. ([10]; listed as c): 0.08 nmoles/60min
- nmoles phosphorylated/60min. ([10]; listed as d): 0.05 nmoles/60min
- nmoles phosphorylated/4 hrs ([10]; standard solutions, value in parentheses (experiment performed twice)): 0.57 nmoles/4 hrs
- nmoles phosphorylated/4 hrs ([10]; standard solutions, value outside parentheses): 0.48 nmoles/4 hrs
- chromatographic change on incubation with cytidine deaminase [11]: remained unchanged chromatographically
- change on incubation with HNO2 [12]: remained unaltered
- modification in acetate buffer [13]: did not lead to modification
- antiviral activity against HSV infections of the eye [7]: does exhibit antiviral activity against infections of the eye
- catabolism in the body [14]: rapid catabolism
- toxicity towards uninfected cells [2]: exhibit toxicity towards uninfected cells
- cytotoxicity at concentrations with antiviral activity ([15]; ±H4 U): extremely cytotoxic

SMILES: O=C1NC(O)CCN1[C@@H]1O[C@H](CO)[C@@H](O)[C@H]1O (some centres unmarked) [H4 U, tetrahydrouridine, reference compound]
- antiviral activity of H4 U [16]: does not display any antiviral activity
- toxicity in man [1]: not toxic in man at extremely high concentrations
- cytotoxic activity of H4 U ([15]; 100 or 500 μg/ml): does not display any cytotoxic activity

SMILES: Nc1nc(=O)n([C@H]2C[C@H](O)[C@@H](CO)O2)cc1I [IdC, 5-iodo-2'-deoxycytidine]
- treatment of Herpes Keratitis in humans compared with IdU ([7]; humans, Kurimoto et al. 1969): more effective
- toxicity towards uninfected cells compared with deoxyuridine compounds [2]: substantially less toxic towards uninfected cells

SMILES: O=c1[nH]c(=O)n([C@H]2C[C@H](O)[C@@H](CO)O2)cc1I [IdU, 5-iodo-2'-deoxyuridine]
- antiviral activity against HSV infections of the eye [7]: exhibits antiviral activity against HSV infections of the eye
- effectiveness against Herpes Keratitis compared with F3 dT ([7]; in vivo): less effective than F3 dT
- catabolism in the body [14]: rapid catabolism
- toxicity towards uninfected cells [2]: exhibit toxicity towards uninfected cells
- effectiveness in human Herpes encephalitis [8]: ineffectiveness

SMILES: O=C(O)CP(=O)(O)O [Phosphonacetic acid]
- efficacy in animal systems [17]: effective in animal systems

SMILES: Nc1ncnc2c1ncn2[C@@H]1O[C@H](COP(=O)(O)O)[C@@H](O)[C@@H]1O [ara-AMP]
- effect against recurrent genital Herpes [9]: neither effective against recurrent genital Herpes
